Measured values published in patent US20130143891A1, “Methods for Treating Methotrexate-Resistant Disorders with 10-Propargyl-10-Deazaaminopterin” (ALLOS THERAPEUTICS, INC., priority 2010, published 2013).
Read-outs that look alike come from different tables or passages of the source.

How the values were obtained:
DU-PDX cells = assay: Cytotoxicity in 10-propargyl-10-deazaminopterin-adapted DU145 cells; format: cell-based, human
Procedure: (§1) All the data generated was the result of three separate experiments performed in duplicate. Cell viability was determined using the MTT assay, which was carried out as described previously (Hansen, 1989). Briefly, cells were seeded in 96-well plates at a density of 2×10^3 cells well^−1. Cells were incubated for 120 hours and then 0.4 mg ml^−1 of MTT dye (3-[4,5-dimethylthiazol-2-yl]-2,5-diphenyltetrazolium bromide was added for 4 hours at 37° C. The monolayer was suspended in 0.1 ml of DMSO and the absorbance at 560 nm was measured using a microplate reader. Positive and negative controls included wells with untreated cells or medium containing MTT with no cells, respectively. The conversion of yellow water-soluble tetrazolium MTT into purple insoluble formazan is catalyzed by mitochondrial dehydrogenases and is used to estimate the number of viable cells. The control value corresponding to untreated cells was taken as 100% and the viability of treated samples was expressed as a percentage of the control. IC50 values were determined as concentrations that reduced cell viability by 50%.
(§2) For single agent studies, cells were seeded and allowed to settle for 24 hours prior to treatment with increasing concentrations of 10-propargyl-10-deazaminopterin for 72 h. After incubation, the cells were allowed to recover in compound-free medium for 48 h, prior to determination of growth inhibition using the MTT assay.
(§3) To characterize the predictive factors of 10-propargyl-10-deazaminopterin antiproliferative effects, the cell lines DU-PDX and HEP-PDX were developed from parental DU145 and HEP2 cells, respectively, by exposure to stepwise increasing concentrations of 10-propargyl-10-deazaminopterin over a period of 6 months.

[1] = tested on: 15 human solid tumor cell lines; assay: Cytotoxicity across panel of 15 human solid tumor cell lines; format: cell-based
Procedure: A panel of colon (HT29, HCT116, COLO205, HCC2998), breast (MCF7, MDA-MB-435), lung (HOP62, HOP92), ovarian (OVCAR3, IGROV1), prostate (DU145, PC3), and head and neck (SCC61, HEP2, SQ20B) human cancer cell lines was purchased from the ATCC (Rockville, Md.) and National Cancer Institute collections. Cells were grown as monolayers in RPMI medium supplemented with 10% fetal calf serum, 2 mM glutamine, 100 units ml^−1 penicillin and […] streptomycin.
as §1, §2

[2] = tested on: DU145 prostate cancer cell line; assay: MTT cell cytotoxicity assay, DU145; format: cell-based, human; details: naïve/parental, 72 h exposure, read-out: Cytotoxicity (IC50s)
Procedure: (§4) A panel of colon (HT29, HCT116, COLO205, HCC2998), breast (MCF7, MDA-MB-435), lung (HOP62, HOP92), ovarian (OVCAR3, IGROV1), prostate (DU145, PC3), and head and neck (SCC61, HEP2, SQ20B) human cancer cell lines was purchased from the ATCC (Rockville, Md.) and National Cancer Institute collections. […] All the data generated was the result of three separate experiments performed in duplicate. Cell viability was determined using the MTT assay, which was carried out as described previously (Hansen, 1989). Briefly, cells were seeded in 96-well plates at a density of 2×10^3 cells well^−1. […] The monolayer was suspended in 0.1 ml of DMSO and the absorbance at 560 nm was measured using a microplate reader. Positive and negative controls included wells with untreated cells or medium containing MTT with no cells, respectively. The conversion of yellow water-soluble tetrazolium MTT into purple insoluble formazan is catalyzed by mitochondrial dehydrogenases and is used to estimate the number of viable cells.

[3] = tested on: COLO205 colon cancer cell line; assay: MTT cell cytotoxicity assay, COLO205; format: cell-based, human; details: 72 h exposure, read-out: Cytotoxicity (IC50s)
Procedure: as §4

[4] = tested on: HEP2 head and neck cancer cell line; assay: MTT cell cytotoxicity assay, HEP2; format: cell-based, human; details: 72 h exposure, read-out: Cytotoxicity (IC50s)
Procedure: as §4

[5] = tested on: IGROV1 ovarian cancer cell line; assay: MTT cell cytotoxicity assay, IGROV1; format: cell-based, human; details: 72 h exposure, read-out: Cytotoxicity (IC50s)
Procedure: as §4

DHFR = assay: Western blot of DHFR protein expression; format: cell-based, human
Procedure: Cells were lysed in buffer containing 50 mM HEPES (pH 7.6), 150 mM NaCl, 1% Triton X-100, 2 mM sodium vanadate, 100 mM NaF, and 0.4 mg·ml^−1 phenylmethylsulfonyl fluoride. Equal amounts of protein (20-50 μg/lane) were subjected to SDS-PAGE and transferred to nitrocellulose membranes. Membranes were probed with anti-cleaved PARP, anti-cleaved caspase 3, anti-caspase 9 (Cell Signaling, Saint Quentin Yvelines, France), anti-DHFR (Abcam, France), anti-β-actin (Sigma Aldrich, Saint-Quentin Fallavier, France) specific primary antibodies followed by peroxidase-linked secondary antibodies and visualization by chemiluminescence.

HEP-PDX cells = assay: Cytotoxicity in 10-propargyl-10-deazaminopterin-adapted HEP2 cells; format: cell-based, human
Procedure: as §1, §2, §3

DU-MTX cells = assay: Cytotoxicity in methotrexate-adapted DU145 cells; format: cell-based, human
Procedure: as §1, §2
To compare the mechanisms of 10-propargyl-10-deazaminopterin and methotrexate resistance, the cell lines DU-MTX and HEP-MTX were developed from parental DU145 and HEP2 cells by exposure to stepwise increasing concentrations of methotrexate.

[6] = tested on: MCF7 breast cancer cell line; assay: MTT cell cytotoxicity assay, MCF7; format: cell-based, human; details: Homo sapiens, MCF7, 72 h, 72 h exposure, read-out: Cytotoxicity (IC50s)
Procedure: as §4

HOP92 NSCLC cell line = assay: MTT cell cytotoxicity assay, HOP92; format: cell-based, human; details: Homo sapiens, HOP-92, 72 h, 72 h exposure, read-out: Cytotoxicity (IC50s)
Procedure: as §4

HOP62 NSCLC cell line = assay: MTT cell cytotoxicity assay, HOP62; format: cell-based, human; details: Homo sapiens, HOP-62, 72 h, 72 h exposure, read-out: Cytotoxicity (IC50s)
Procedure: as §4

[7] = tested on: SQ20B head and neck cancer cell line; assay: MTT cell cytotoxicity assay, SQ20B; format: cell-based, human; details: Homo sapiens, SQ20B, 72 h, 72 h exposure, read-out: Cytotoxicity (IC50s)
Procedure: as §4

[8] = tested on: HCC2998 colon cancer cell line; assay: MTT cell cytotoxicity assay, HCC2998; format: cell-based, human; details: Homo sapiens, HCC 2998, 72 h, 72 h exposure, read-out: Cytotoxicity (IC50s)
Procedure: as §4

[9] = tested on: OVCAR3 ovarian cancer cell line; assay: MTT cell cytotoxicity assay, OVCAR3; format: cell-based, human; details: Homo sapiens, OVCAR-3, 72 h, 72 h exposure, read-out: Cytotoxicity (IC50s)
Procedure: as §4

[10] = tested on: HCT116 colon cancer cell line; assay: MTT cell cytotoxicity assay, HCT116; format: cell-based, human; details: Homo sapiens, HCT-116, 72 h, 72 h exposure, read-out: Cytotoxicity (IC50s)
Procedure: as §4

[11] = tested on: SCC61 head and neck cancer cell line; assay: MTT cell cytotoxicity assay, SCC61; format: cell-based, human; details: Homo sapiens, 72 h, 72 h exposure, read-out: Cytotoxicity (IC50s)
Procedure: as §4

[12] = tested on: PC3 prostate cancer cell line; assay: MTT cell cytotoxicity assay, PC3; format: cell-based, human; details: Homo sapiens, 72 h, 72 h exposure, read-out: Cytotoxicity (IC50s)
Procedure: as §4

[13] = tested on: MDA-MB-435 melanoma cell line; assay: MTT cell cytotoxicity assay, MDA-MB-435; format: cell-based, human; details: Homo sapiens, MDA-MB-435, 72 h, MDA-MB-435 (melanoma; MDA435 in table), 72 h exposure; read-out: Cytotoxicity (IC50s)
Procedure: as §4

[14] = tested on: HT29 colon cancer cell line; assay: MTT cell cytotoxicity assay, HT29; format: cell-based, human; details: Homo sapiens, HT-29, 72 h, 72 h exposure, read-out: Cytotoxicity (IC50s)
Procedure: as §4

With `C#CCC(Cc1cnc2nc(N)nc(N)c2n1)c1ccc(C(=O)N[C@@H](CCC(=O)O)C(=O)O)cc1` (mixture of isomers) [Pralatrexate, (2S)-2-[[4-[(1RS)-1-[(2,4-diaminopteridin-6-yl)methyl]but-3-ynyl]benzoyl]amino]pentanedioic acid] the “less sensitive (resistant) than parental cells” value (DU-PDX cells; DU-PDX versus parental DU145) was “more than 200 fold”, the “change in cytotoxicity with and without verapamil and cyclosporine A” value (DU-PDX cells; DU-PDX, 30 μM verapamil and 3 μM cyclosporin A concomitantly for 72 hours) was “No changes were observed” and the IC50 ([1]; 6 of the 15 human cancer cell lines, read-out: IC50 in the 6 relatively resistant of 15 cell lines) was over 9 µM. For the same compound, the “IC50s on average lower than those observed for methotrexate” value ([1]; average over the panel) was about 10 fold, the IC50 ([1]; nine of the 15 human cancer cell lines, read-out: IC50 in the nine sensitive of 15 cell lines) was under 0.1 µM and the IC50 ([2]; listed as 10-propargyl-10-deazaminopterin) was 0.01 µM. The IC50 [3] was 9 µM, the IC50 ([3]; Homo sapiens, COLO 205, 72 h) was at least 9 µM and the IC50 [4] was 0.05 µM. The IC50 ([4]; Homo sapiens, HEp-2, 72 h) was under 0.1 µM, the IC50 [5] was 0.08 µM and the IC50 ([5]; Homo sapiens, IGROV-1, 72 h) was under 0.1 µM. For the same compound, the “DHFR protein expression after prolonged exposure” value (DHFR; 6 months exposure, HEP-PDX cells) was “not after prolonged (6 months) exposure”, the “DHFR protein expression after short exposure” value (DHFR; 24 hour exposure (FIG. 6)) was “slightly increased” and the “less sensitive (resistant) than parental cells” value (HEP-PDX cells; HEP-PDX versus parental HEP2) was “more than 200 fold”. The “change in cytotoxicity with and without verapamil and cyclosporine A” value (HEP-PDX cells; HEP-PDX, 30 μM verapamil and 3 μM cyclosporin A concomitantly for 72 hours) was “No changes were observed”, the “IC50 lower than that of methotrexate” value (DU-MTX cells; DU-MTX cells) was “approximately 10 fold” and the IC50 (DU-MTX cells; Homo sapiens, DU-145, DU-MTX cells (FIG. 3), read-out: IC50 for the methotrexate adapted DU-145 cell lines) was 0.02 µM.

`O=c1[nH]cc(F)c(=O)[nH]1` [5-FU, 5-fluorouracil] was tested, and the “cross-resistance: cytotoxicity in DU-PDX compared with parental DU145” value (DU-PDX cells; DU-PDX cells, 72 h exposure for pemetrexed and 5-FU) was “No significant difference”, the IC50 [6] was 1.3 µM and the IC50 (HOP92 NSCLC cell line) was 18 µM. The IC50 (HOP62 NSCLC cell line) was 78 µM, the IC50 [7] was 10 µM and the IC50 [8] was 10 µM. For the same compound, the IC50 [9] was 31 µM, the IC50 [10] was 10 µM and the IC50 ([2]; Homo sapiens, DU-145, 72 h) was 7 µM. For the same compound, the IC50 ([3]; Homo sapiens, COLO 205, 72 h) was 0.8 µM, the IC50 ([4]; Homo sapiens, HEp-2, 72 h) was 86 µM and the IC50 ([5]; Homo sapiens, IGROV-1, 72 h) was 8 µM. It also gave an IC50 [11] of 1.2 µM, an IC50 [12] of 1.5 µM and an IC50 [13] of 5 µM. The “cross-resistance: cytotoxicity in HEP-PDX compared with parental HEP2” value (HEP-PDX cells; HEP-PDX cells, 72 h exposure for pemetrexed and 5-FU) was “No significant difference” and the IC50 [14] was 3 µM.
